Where two headings read alike, the source gives them in different places.
Key:
[1] = tested on: L1210 leukemia cells; experiment: Survival of mice transplanted with L1210 leukemia cells; format: in vivo, DBA2 mice; conditions: single agent: AraC 1000 mg/kg IP Days 2, 5, 8, or DNase II 15 or 45 mg/kg/day IP; Figure 4
Procedure: Treatment with DNase and AraC was initiated on Day 1 of experiment. Cytosine arabinoside (AraC; Cytosar; Pfizer) was injected IP at a dose of 1000 mg/kg on Days 2, 5 and 8. The injected doses were considered adequate for the model and injection route based on prior experiments (13-14). DNase II (Wornington) was injected IP at doses of 15 mg/kg/day and 45 mg/kg/day on Days 1, 3, 5, 8, 10, 12, 15, 17, and 19.
Animals were randomized into 6 experimental groups of 6 mice per group as follows: • 1. Group I: negative control (no treatment); • 2. Group II: positive control (animals treated with AraC); • 3. Group III: animals treated with AraC and 15 mg/kg DNase; • 4. Group IV: animals treated with AraC and 45 mg/kg DNase; • 5. Group V: animals treated with 15 mg/kg DNase, no AraC; • 6. Group VI: animals treated with 45 mg/kg DNase, no AraC.

[2] = Etoposide 200 mg/kg + 5-FU 400 mg/kg per os, treatment 50 mg/kg IV
Procedure: On Day 1, Etoposide (LANCE) 200 mg/kg and 5-fluorouracil (5-FU; EBEWE) 400 mg/kg were given orally via feeding needle in 500 pl of a 9% glucose solution. Animals were divided into 4 groups of 16 rats each. […] Group I: IV placebo (WFI); • 2. Group II: human recombinant DNase I (Pharmsynthez OJSC) at 1.5 mg/kg (3000 KU/kg) dose IV; • 3. Group III: human recombinant DNase I (Pharmsynthez OJSC) at 50 mg/kg (100000 KU/kg) dose IV; • 4. Group IV: cimetidine solution (Gedeon Richter) at 50 mg/kg dose IV.
36 hours later, all animals were euthanized and their stomachs were removed and analyzed for the presence of erosions and hemorrhages using an automated video analyzer system.

[3] = surviving rats, Day 14; Doxorubicin 3.75 mg/kg plus DNase I 15 mg/kg/day IP or placebo
Procedure: 42 Wistar male rats (180-200 g) were used in this experiment (obtained from Stolbovaya nursery of Russian Academy of Medical Sciences). Animals were kept under standard conditions with free access to food and drinking water. Animals were randomized into 7 groups (6 animals in each group) as follows: • 1. Group I: control group (no Doxorubicin, no DNase); • 2. Group II: animals treated by daily intravenous (IV) injections of Doxorubicin (LENS) at 3.75 mg/kg/day dose for 5 days plus daily intraperitoneal (IP) injections of human recombinant DNase I (Pharmsynthez OJSC) at 15 mg/kg/day dose (30000 KU/kg/day); Doxorubicin and DNase I injections were administered at the same time; • 3. Group III: animals treated by daily IV injections of Doxorubicin (LENS) at 3.75 mg/kg/day dose for 5 days plus daily IP injections of placebo (water for injection [WFI]); • 4. Group IV: animals treated by daily IV injections of Doxorubicin (LENS) at 7.5 mg/kg/day dose for 5 days plus daily IP injections of human recombinant DNase I (Pharmsynthez OJSC) at 15 mg/kg/day dose (30000 KU/kg/day); Doxorubicin and DNase I injections were administered at the same time; • 5. Group V: animals treated by daily IV injections of Doxorubicin (LENS) at 7.5 mg/kg/day dose for 5 days plus daily IP injections of placebo (WFI); • 6. Group VI: animals treated by daily IV injections of Doxorubicin (LENS) at 10.0 mg/kg/day dose for 5 days plus daily IP injections of human recombinant DNase I (Pharmsynthez OJSC) at 15 mg/kg/day dose (30000 KU/kg/day); Doxorubicin and DNase I injections were administered at the same time; • 7. Group VII: animals treated by daily IV injections of Doxorubicin (LENS) at 10.0 mg/kg/day dose for 5 days plus daily IP injections of placebo (WFI).

[4] = for Body weight of surviving rats: Doxorubicin 3.75 mg/kg plus DNase I 15 mg/kg/day IP or placebo; for Number of dead/out of total in group: monitored 2 weeks
Description: Group I: control group (no Doxorubicin, no DNase); • 2.
Animals were monitored during 2 weeks from the beginning of experiment for survival and weight.

[5] = tested on: Thymocytes; experiment: Con A-induced lymphocyte blast transformation of thymocytes from paclitaxel-treated mice (3H thymidine incorporation); format: in vivo, (CBAxC57Bl6) F1 mice; conditions: thymocytes collected 24 hours after paclitaxel 20 mg/kg IV, with or without DNase gamma 2 mg/kg IP 1 hour later, scintillation counts
Procedure: 10 male 6-week-old (CBAxC57Bl6) F1 mice (obtained from Rappolovo animal house) were given a single 20 mg/kg dose of paclitaxel (Paclitaxel-Teva) IV. A group of 5 paclitaxel treated mice were injected IP 1 hour later with recombinant mouse DNase gamma (USCN Life Science Inc.) at 2 mg/kg dose IP. A group of 5 […] mice were injected IP at the same time with 1 ml of placebo (WFI) to serve as the control. All mice were killed 24 hours later by cervical dislocation. The thymuses from each group were collected and homogenized in a separator in RPMI 1640 media supplemented with 10% fetal calf serum. The suspension of thymocytes was filtered and sedimented in a centrifuge at 400xg for 2 minutes and then resuspended with the same media. Thymocytes were plated into 96 well plates (900,000 cells per well in 200 pl of RPMI 1640 supplemented with 10% fetal calf serum (FCS)) and incubated for 32 hours at 37°C, 100% humidity and 5% COz atmosphere. Each well was then supplemented with ^3H thymidine (UC/10pl/well) and Concanavalin A (ConA; 50pl; 1.25 pg/ml). After 24 hours of further incubation, thymocytes were harvested and dried. Labeled ^3H thymidine incorporation was measured using a Beckman scintillation counter.

[6] = Doxorubicin 3.75 mg/kg/day IV for 5 days plus DNase I 15 mg/kg/day IP or placebo (WFI)
[7] = Doxorubicin 7.5 mg/kg/day IV for 5 days plus DNase I 15 mg/kg/day IP or placebo (WFI)
[8] = Doxorubicin 10.0 mg/kg/day IV for 5 days plus DNase I 15 mg/kg/day IP or placebo (WFI)

SMILES: Nc1ccn([C@@H]2O[C@H](CO)[C@@H](O)[C@@H]2O)c(=O)n1 [AraC, cytosine arabinoside]
- survival rates [1]: better survival rates versus non-treated mice

SMILES: CN/C(=N/CCSCc1nc[nH]c1C)NC#N [Cimetidine, cimetidine]
- Median number of lesions [2]: 2.5±1.1
- Number of lesion free animals (percent) [2]: 62.5%
- Total number of lesions per group ([2]; 16 animals, 36 hours later): 40
- Number of lesion free animals ([2]; of 16 animals): 10

SMILES: COc1cccc2c1C(=O)c1c(O)c3c(c(O)c1C2=O)C[C@@](O)(C(=O)CO)C[C@@H]3O[C@H]1C[C@H](N)[C@H](O)[C@H](C)O1 [Doxorubicin]
- Basophils [3]: 0%
- Eosinophils [3]: 2.4±0.3%
- Glucose [3]: 6.1 ± 0.2 mmol/L
- Haemoglobin [3]: 9.5±0.7 G%
- Hematocrit [3]: 30.5±2.2%
- K [3]: 5.6 ± 0.3 mmol/L
- Lymphocytes [3]: 82.3±2.2%
- Monocyte [3]: 2.3±0.5%
- Na [3]: 144 ± 2 mmol/L
- Plasmatic cells [3]: 1.3±0.5%
- Platelets [3]: 340±25 10^9/L
- Protein [3]: 54.7 ± 7.3 g/L
- RBC sedimentation count [3]: 24.1±4.5 mm/h
- Segmented neutrophils [3]: 11.6±1.3%
- Total cholesterol [3]: 1.10 ± 0.29 mmol/L
- Total lipids [3]: 2.06 ± 0.27 g/L
- Urea [3]: 7.21 ± 0.3 mmol/L
- WBC [3]: 4.9±0.2 10^9/L
- Body weight of surviving rats ([4]; Baseline (before doxorubicin)): 164 ± 6 grams
- Body weight of surviving rats ([4]; Day 4): 143 ± 6 grams
- Body weight of surviving rats ([4]; Day 7): 151 ± 7 grams
- Body weight of surviving rats ([4]; Day 14): 156 ± 6 grams
- Median survival of deceased rats [4, 6]: 12 ± 2.1 days
- Number of dead/out of total in group [4, 6]: 3/6
- Median survival of deceased rats [4, 7]: 8.2 ± 1.0 days
- Number of dead/out of total in group [4, 7]: 5/6
- Median survival of deceased rats [4, 8]: 6.6 ± 0.9 days
- Number of dead/out of total in group [4, 8]: 6/6

SMILES: CC(=O)O[C@H]1C(=O)[C@@]2(C)[C@H]([C@H](OC(=O)c3ccccc3)[C@]3(O)C[C@H](OC(=O)[C@H](O)[C@@H](NC(=O)c4ccccc4)c4ccccc4)C(C)=C1C3(C)C)[C@]1(OC(C)=O)CO[C@@H]1C[C@@H]2O [Paclitaxel, paclitaxel]
- Con A-induced ^3HT incorporation ([5]; ConA): 1686±142 CPM
- Basal ^3HT incorporation [5]: 277±21 CPM

— patent publication EP3878462B1 (priority 2015, dated 2017)
